We go through 25 compounds from US8455475B2 (Gruenenthal GmbH, priority 2009, dated 2013).

For orientation: inhibition means the drop in the measured response relative to a control, in per cent.

For this assay, the target named is T1, rat B1R (bradykinin receptor 1) (Rattus norvegicus, UniProt P97583).
T1 construct: expressed in transfected cells; host or cells: CHO K1 cells
T1 sequence (P97583 1-337): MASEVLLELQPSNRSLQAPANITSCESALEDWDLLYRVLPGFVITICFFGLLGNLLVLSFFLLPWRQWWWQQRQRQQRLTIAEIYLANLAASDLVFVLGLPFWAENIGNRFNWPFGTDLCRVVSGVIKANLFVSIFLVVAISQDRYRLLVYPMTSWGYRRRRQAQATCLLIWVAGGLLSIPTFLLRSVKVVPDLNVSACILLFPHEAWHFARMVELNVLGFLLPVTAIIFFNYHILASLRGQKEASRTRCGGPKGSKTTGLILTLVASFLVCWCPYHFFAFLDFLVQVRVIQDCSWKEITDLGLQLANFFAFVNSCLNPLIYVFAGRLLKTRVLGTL
The experiment in a line: FLIPR Ca2+ assay (Fluo-4) on CHO K1 cells stably transfected with the B1R gene of the rat (rB1R cells): % inhibition at 10 μM / IC50, agonist Des-Arg9-bradykinin. It is filed as cell-based. Particulars: CHO-K1, rat B1R. In short, it runs like this:
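Stably transfected CHO K1 cells loaded with Fluo-4 and read on FLIPR (λex 488, λem 540 nm; peak fluorescence). Test substance (10 μM) added first, then after 10–20 min the agonist at EC80; % inhibition versus maximum achievable inhibition. IC50 from several concentrations, n=2–3, N≥2.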

Consider `O=C(NC1CCc2ccc(C(=O)N3CCC4(CC3)CCN(c3ccncc3)CC4)cc21)C1CC1` (stereo not shown) [IND_CC-368, N-[6-(9-Pyridin-4-yl-3,9-diazaspiro[5.5]undecane-3-carbonyl)-2,3-dihydro-1H-inden-1-yl]-cyclopropanecarboxylic acid amide], for which the inhibition at 10 µM was 87%.
To `Cc1nc(CN2CCC3(CC2)CCN(C(=O)c2ccc4c(c2)C(NC(=O)c2c(C)cccc2Cl)CC4)C3)c[nH]1` (stereo not shown) [IND_CC-728, 2-Chloro-6-methyl-N-[6-[8-[(2-methyl-1H-imidazol-4-yl)-methyl]-2,8-diazaspiro[4.5]decane-2-carbonyl]-2,3-dihydro-1H-inden-1-yl]-benzamide] belongs 58%; to `CN(C)c1ncc(CN2CCC3(CC2)CCN(C(=O)c2ccc4c(c2)C(NC(=O)c2c(F)cccc2Cl)CC4)C3)cn1` (stereo not shown) [IND_CC-773, 2-Chloro-N-[6-[8-[(2-dimethylamino-pyrimidin-5-yl)-methyl]-2,8-diazaspiro-[4.5]decane-2-carbonyl]-2,3-dihydro-1H-inden-1-yl]-6-fluoro-benzamide], 80%.
Under `O=C(NC1CCc2ccc(C(=O)N3CCC4(CCN(Cc5cc(F)ccc5F)CC4)CC3)cc21)c1ccccc1Cl` (stereo not shown) [IND_CC-515, 2-Chloro-N-[6-[9-[(2,5-difluoro-phenyl)-methyl]-3,9-diazaspiro[5.5]undecane-3-carbonyl]-2,3-dihydro-1H-inden-1-yl]-benzamide] stands 104%; under `O=C(NC1CCc2ccc(C(=O)N3CCC4(CC3)CCN(S(=O)(=O)c3ccc(Cl)s3)CC4)cc21)c1ccccc1Cl` (stereo not shown) [IND_CC-608, 2-Chloro-N-[6-[9-[(5-chloro-thiophen-2-yl)sulfonyl]-3,9-diazaspiro[5.5]undecane-3-carbonyl]-2,3-dihydro-1H-inden-1-yl]-benzamide], 102%; under `Cc1cccc(Cl)c1C(=O)NC1CCc2ccc(C(=O)N3CCC4(CCN(Cc5cnn(C)c5C)CC4)C3)cc21` (stereo not shown) [IND_CC-729, 2-Chloro-N-[6-[8-[(1,5-dimethyl-1H-pyrazol-4-yl)-methyl]-2,8-diazaspiro-[4.5]decane-2-carbonyl]-2,3-dihydro-1H-inden-1-yl]-6-methyl-benzamide], 76%.
Turning to `Cc1cccc(Cl)c1C(=O)NC1CCc2ccc(C(=O)N3CCC4(CCN(CCCc5cccc(F)c5)CC4)C3)cc21` (stereo not shown) [IND_CC-770, 2-Chloro-N-[6-[8-[3-(3-fluorophenyl)-propyl]-2,8-diazaspiro[4.5]decane-2-carbonyl]-2,3-dihydro-1H-inden-1-yl]-6-methyl-benzamide], the inhibition at 10 µM turned out to be 109%.
To `Cn1nc(C(C)(C)C)cc1C(=O)N1CCC2(CCN(C(=O)c3ccc4c(c3)C(NC(=O)c3sccc3Cl)CC4)C2)CC1` (stereo not shown) [IND_CC-587, N-[6-[8-(5-tert-Butyl-2-methyl-2H-pyrazole-3-carbonyl)-2,8-diazaspiro[4.5]-decane-2-carbonyl]-2,3-dihydro-1H-inden-1-yl]-3-chloro-thiophene-2-carboxylic acid amide] belongs 71%; to `O=C(NC1CCc2ccc(C(=O)N3CCC4(CCN(CCCc5ccc(F)cc5)CC4)CC3)cc21)c1cccc(Cl)c1Cl` (stereo not shown) [IND_CC-760, 2,3-Dichloro-N-[6-[9-[3-(4-fluorophenyl)-propyl]-3,9-diazaspiro[5.5]undecane-3-carbonyl]-2,3-dihydro-1H-inden-1-yl]-benzamide], 93%; to `COc1cc(C)c(C(=O)NC2CCc3ccc(C(=O)N4CCC5(CCN(C(=O)c6cc(C)nn6C(C)(C)C)CC5)C4)cc32)c(C)c1` (stereo not shown) [IND_CC-581, N-[6-[8-(2-tert-Butyl-5-methyl-2H-pyrazole-3-carbonyl)-2,8-diazaspiro[4.5]decane-2-carbonyl]-2,3-dihydro-1H-inden-1-yl]-4-methoxy-2,6-dimethyl-benzamide], 67%.
With `N#Cc1ccccc1S(=O)(=O)N1CCC2(CCN(C(=O)c3ccc4c(c3)C(N(C(=O)c3ccccc3Cl)C3CC3)CC4)C2)CC1` (stereo not shown) [IND_CC-618, 2-Chloro-N-[6-[8-[(2-cyano-phenyl)sulfonyl]-2,8-diazaspiro[4.5]decane-2-carbonyl]-2,3-dihydro-1H-inden-1-yl]-N-cyclopropyl-benzamide], the inhibition at 10 µM is 61%.
To `CN(C)c1ccc(NC(=O)N2CCC3(CC2)CCN(C(=O)c2ccc4c(c2)C(NC(=O)c2ccccc2Cl)CC4)CC3)cc1` (stereo not shown) [IND_CC-707, 3-[3-[(2-Chloro-benzoyl)amino]-2,3-dihydro-1H-indene-5-carbonyl]-N-(4-dimethylaminophenyl)-3,9-diazaspiro[5.5]undecane-9-carboxylic acid amide] belongs 92%.
To `Cc1cc(F)ccc1S(=O)(=O)NC1CC(C)(C)c2ccc(C(=O)N3CCC4(CC3)CCN(c3ccncc3)CC4)cc21` (stereo not shown) [IND_CC-339, N-[3,3-Dimethyl-6-(3-pyridin-4-yl-3,9-diazaspiro[5.5]undecane-9-carbonyl)-1,2-dihydro-inden-1-yl]-4-fluoro-2-methyl-benzenesulfonic acid amide] belongs 103%; to `O=C(c1ccc2c(c1)C(NS(=O)(=O)c1cccc(C(F)(F)F)c1)CC2)N1CCC2(CCN(c3ccncc3)CC2)C1` (stereo not shown) [IND_CC-342, N-[6-(8-Pyridin-4-yl-2,8-diazaspiro[4.5]decane-2-carbonyl)-2,3-dihydro-1H-inden-1-yl]-3-(trifluoromethyl)-benzenesulfonic acid amide], 103%.
Under `Cn1nnc2cc(CN3CCC4(CC3)CCN(C(=O)c3ccc5c(c3)C(NC(=O)c3cc(Cl)ccc3F)CC5)CC4)ccc21` (stereo not shown) [IND_CC-679, 5-Chloro-2-fluoro-N-[6-[9-[(1-methyl-1H-benzotriazol-5-yl)-methyl]-3,9-diazaspiro[5.5]undecane-3-carbonyl]-2,3-dihydro-1H-inden-1-yl]-benzamide] stands 82%.
For the compound `O=C(c1ccc2c(c1)C(NS(=O)(=O)c1ccccc1Cl)CC2)N1CCC2(CCN(c3ccncc3)CC2)C1` (stereo not shown) [Ind_CC-089, 2-chloro-N-[6-(8-pyridin-4-yl-3,8-diazaspiro[4.5]decane-3-carbonyl)-2,3-dihydro-1H-inden-1-yl]-benzenesulfonic acid amide], the inhibition at 10 µM was 100%.
Under `O=C(NC1CCc2ccc(C(=O)N3CCC4(CCN(CC5CCCCC5)CC4)CC3)cc21)c1cc(C(F)(F)F)ccc1Cl` (stereo not shown) [IND_CC-700, 2-Chloro-N-[6-[9-(cyclohexyl-methyl)-3,9-diazaspiro[5.5]undecane-3-carbonyl]-2,3-dihydro-1H-inden-1-yl]-5-(trifluoromethyl)-benzamide] stands 64%; under `CN(C1CCc2ccc(C(=O)N3CCC4(CC3)CCN(c3ccncc3)CC4)cc21)S(=O)(=O)c1c(Cl)cccc1Cl` (stereo not shown) [IND_CC-321, 2,6-Dichloro-N-methyl-N-[6-(9-pyridin-4-yl-3,9-diazaspiro[5.5]undecane-3-carbonyl)-2,3-dihydro-1H-inden-1-yl]-benzenesulfonic acid amide], 95%.
To `O=C(NC1CCc2ccc(C(=O)N3CCC4(CCN(Cc5c[nH]cn5)CC4)CC3)cc21)c1cc(Cl)ccc1F` (stereo not shown) [IND_CC-625, 5-Chloro-2-fluoro-N-[6-[9-(1H-imidazol-4-yl-methyl)-3,9-diazaspiro[5.5]undecane-3-carbonyl]-2,3-dihydro-1H-inden-1-yl]-benzamide] belongs 50%; to `O=C(NC1CCc2ccc(C(=O)N3CCC4(CCN(Cc5csnn5)CC4)C3)cc21)c1cc(C(F)(F)F)ccc1Cl` (stereo not shown) [IND_CC-656, 2-Chloro-N-[6-[8-([1,2,3]thiadiazol-4-yl-methyl)-2,8-diazaspiro[4.5]decane-2-carbonyl]-2,3-dihydro-1H-inden-1-yl]-5-(trifluoromethyl)-benzamide], 51%.
Under `N#Cc1cccc(CN2CCC3(CC2)CCN(C(=O)c2ccc4c(c2)C(N(C(=O)c2ccccc2Cl)C2CC2)CC4)C3)c1` (stereo not shown) [IND_CC-540, 2-Chloro-N-[6-[8-[(3-cyano-phenyl)-methyl]-2,8-diazaspiro[4.5]decane-2-carbonyl]-2,3-dihydro-1H-inden-1-yl]-N-cyclopropyl-benzamide] stands 82%.
For `N#Cc1ccccc1CN1CCC2(CC1)CCN(C(=O)c1ccc3c(c1)C(NC(=O)c1cc(C(F)(F)F)ccc1Cl)CC3)C2` (stereo not shown) [IND_CC-660, 2-Chloro-N-[6-[8-[(2-cyano-phenyl)-methyl]-2,8-diazaspiro[4.5]decane-2-carbonyl]-2,3-dihydro-1H-inden-1-yl]-5-(trifluoromethyl)-benzamide], the inhibition at 10 µM turned out to be 50%.
As for `Cc1ccc(C(=O)NC2CCc3ccc(C(=O)N4CCC5(CC4)CCN(c4ccncc4)C5)cc32)c(F)c1` (stereo not shown) [IND_CC-306, 2-Fluoro-4-methyl-N-[6-(2-pyridin-4-yl-2,8-diazaspiro[4.5]decane-8-carbonyl)-2,3-dihydro-1H-inden-1-yl]-benzamide], the inhibition at 10 µM turned out to be 106%.
`O=C(NC1CCc2ccc(C(=O)N3CCC4(CCN(CCCc5ccc(F)cc5)CC4)CC3)cc21)c1cc(C(F)(F)F)ccc1Cl` (stereo not shown) [IND_CC-703, 2-Chloro-N-[6-[9-[3-(4-fluorophenyl)-propyl]-3,9-diazaspiro[5.5]undecane-3-carbonyl]-2,3-dihydro-1H-inden-1-yl]-5-(trifluoromethyl)-benzamide]: the inhibition at 10 µM came to 70%.
Under `O=C(c1ccc2c(c1)C(N(C(=O)c1ccccc1Cl)C1CC1)CC2)N1CCC2(CCN(Cc3c(F)cccc3Cl)CC2)C1` (stereo not shown) [IND_CC-538, 2-Chloro-N-[6-[8-[(2-chloro-6-fluoro-phenyl)-methyl]-2,8-diazaspiro[4.5]-decane-2-carbonyl]-2,3-dihydro-1H-inden-1-yl]-N-cyclopropyl-benzamide] stands 72%.
